# According to patent publication US20260373266A1, “PROTEIN DEGRADERS AND USES THEREOF” (KYMERA THERAPEUTICS, INC., priority 2022, published 2026):
# Molecular target: T1, DCAF1 WD40 domain (residues 1077-1390) (Homo sapiens, UniProt Q9Y4B6)
# T1 construct: DCAF1 WD40 domain (residues 1077-1390)
# Assay: DCAF1 binding assay by SPR (Biacore 8K+), DCAF1-3 KD
# Conditions: 25 °C, read-out: DCAF1-3 SPR (KD)
# T1 sequence (Q9Y4B6 1077-1390): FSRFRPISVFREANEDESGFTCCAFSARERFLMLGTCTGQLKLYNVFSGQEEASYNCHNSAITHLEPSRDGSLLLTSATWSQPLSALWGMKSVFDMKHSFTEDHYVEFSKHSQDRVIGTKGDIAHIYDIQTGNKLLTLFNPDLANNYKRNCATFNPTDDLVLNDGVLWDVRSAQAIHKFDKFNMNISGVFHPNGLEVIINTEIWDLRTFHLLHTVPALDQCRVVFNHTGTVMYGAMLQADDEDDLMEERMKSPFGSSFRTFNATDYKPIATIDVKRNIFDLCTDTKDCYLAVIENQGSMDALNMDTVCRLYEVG
row,SMILES,Kd [µM]
1,c1ccc(Cn2cc(N3CCC[C@@H](Nc4cc(N5CCOCC5)ccn4)C3)cn2)cc1 [I-420],> 200
2,CC(C)Cn1cc(N2CCC[C@@H](Nc3cc(N4CCOCC4)ccn3)C2)cn1 [I-421],> 200
3,Cc1nn(CC(F)(F)F)cc1N1CCC[C@@H](Nc2cc(N3CCOCC3)ccn2)C1 [I-422],> 200
4,c1ccc2c(c1)nc(N1CCC[C@@H](Nc3cc(N4CCOCC4)ccn3)C1)c1nnnn12 [I-423],> 200
5,N#Cc1ncccc1N1CCC[C@@H](Nc2cc(N3CCOCC3)ccn2)C1 [I-424],> 200
6,O=C1Cc2cc(N3CCC[C@@H](Nc4cc(N5CCOCC5)ccn4)C3)ncc2N1 [I-425],> 200
7,FC(F)(F)Oc1ccc(N2CCC[C@@H](Nc3cc(N4CCOCC4)ccn3)C2)nc1 [I-426],10 to 100
8,N#Cc1cc2c(nc1N1CCC[C@@H](Nc3cc(N4CCOCC4)ccn3)C1)CCC2 [I-427],> 200
9,Cc1cc(N2CCC[C@@H](Nc3cc(N4CCOCC4)ccn3)C2)cnc1OC(C)C [I-428],> 200
10,COC(=O)Cc1ccnc(N2CCC[C@@H](Nc3cc(N4CCOCC4)ccn3)C2)c1 [I-429],10 to 100
11,CC(=O)Nc1cccnc1N1CCC[C@@H](Nc2cc(N3CCOCC3)ccn2)C1 [I-430],> 200
12,O=C1COc2cc(N3CCC[C@@H](Nc4cc(N5CCOCC5)ccn4)C3)cnc2N1 [I-431],< 10
13,Cc1nc(N2CCC[C@@H](Nc3cc(N4CCOCC4)ccn3)C2)ccc1CO [I-432],> 200
14,CC(C)Oc1cncc(N2CCC[C@@H](Nc3cc(N4CCOCC4)ccn3)C2)c1 [I-433],100 to 200
15,O=C1Cc2cnc(N3CCC[C@@H](Nc4cc(N5CCOCC5)ccn4)C3)cc2N1 [I-434],> 200
16,c1ccc(Cc2ccc(N3CCC[C@@H](Nc4cc(N5CCOCC5)ccn4)C3)nc2)cc1 [I-435],> 200
17,c1ccc(Oc2cncc(N3CCC[C@@H](Nc4cc(N5CCOCC5)ccn4)C3)c2)cc1 [I-436],10 to 100
18,c1ccc(-c2cc(N3CCC[C@@H](Nc4cc(N5CCOCC5)ccn4)C3)ccn2)nc1 [I-437],10 to 100
19,NC(=O)C[C@H](NC(=O)c1ccc(C#Cc2ccccc2)cc1)c1cccc(Cl)c1 [I-438],> 200
20,NC(=O)C[C@H](NC(=O)c1ccc(-c2nc(C3CC3)n[nH]2)cc1)c1cccc(Cl)c1 [I-439],> 200
21,NC(=O)C[C@H](NC(=O)CNC1=Nc2ccccc2CC1)c1cccc(Cl)c1 [I-440],> 200
22,NC(=O)C[C@H](NC(=O)CCc1nc2c(F)cccc2[nH]1)c1cccc(Cl)c1 [I-441],> 200
23,CN1CC=CC[C@@H]1CC(=O)N[C@@H](CC(N)=O)c1cccc(Cl)c1 [I-442],> 200
24,Cn1cnc(C[C@H](O)C(=O)N[C@@H](CC(N)=O)c2cccc(Cl)c2)c1 [I-443],> 200
25,NC(=O)C[C@H](NC(=O)[C@@H]1CC[C@](O)(c2ccccc2)C1)c1cccc(Cl)c1 [I-444],> 200
26,NC(=O)C[C@H](NC(=O)[C@H]1C[C@@](O)(c2ccccc2)C1)c1cccc(Cl)c1 [I-445],> 200
27,C=CC(=O)N1CCN(c2ccnc(N[C@@H]3CCCN(c4cccc(F)c4)C3)c2)CC1 [I-446],> 200

row,SMILES,Kd [µM]
1,C=CC(=O)Nc1ccnc(N[C@@H]2CCCN(c3cccc(F)c3)C2)c1 [I-447],10 to 100
2,C=CC(=O)N(C)CCN(C)c1ccnc(N[C@@H]2CCCN(c3cccc(F)c3)C2)c1 [I-448],> 200
3,C=CC(=O)N1CCC[C@@H](Nc2cc(N3CCOCC3)ccn2)C1 [I-449],> 200
4,C=CC(=O)Nc1cccc(N2CCC[C@@H](Nc3cc(N4CCOCC4)ccn3)C2)c1 [I-450],> 200
5,C=CC(=O)NC1CCN(c2ccnc(N[C@@H]3CCCN(c4cccc(F)c4)C3)c2)CC1 [I-451],> 200
6,C=CC(=O)N1CCC(c2n[nH]cc2C(=O)N[C@@H](CC(N)=O)c2cccc(Cl)c2)CC1 [I-452],> 200
7,C=CC(=O)N1CCC(c2n[nH]cc2C(=O)N[C@@H](CC(N)=O)c2cccc(Cl)c2)C1 (stereo partly shown) [I-453],> 200
8,C=CC(=O)NC1CCCN(c2ccnc(N[C@@H]3CCCN(c4cccc(F)c4)C3)c2)C1 (stereo partly shown) [I-454],100 to 200
9,C=CC(=O)N1CC(c2n[nH]cc2C(=O)N[C@@H](CC(N)=O)c2cccc(Cl)c2)C1 [I-455],> 200
10,C=CC(=O)NC1CCN(c2ccnc(N[C@@H]3CCCN(c4cccc(F)c4)C3)c2)C1 (stereo partly shown) [I-456],> 200
11,C=CC(=O)N1CC(N(C)c2ccnc(N[C@@H]3CCCN(c4cccc(F)c4)C3)c2)C1 [I-457],10 to 100
12,C=CC(=O)N1CCC(N(C)c2ccnc(N[C@@H]3CCCN(c4cccc(F)c4)C3)c2)C1 (stereo partly shown) [I-458],> 200
13,C=CC(=O)N1CCCC(N(C)c2ccnc(N[C@@H]3CCCN(c4cccc(F)c4)C3)c2)C1 (stereo partly shown) [I-459],> 200
14,C=CC(=O)N1CCC(N(C)c2ccnc(N[C@@H]3CCCN(c4cccc(F)c4)C3)c2)CC1 [I-460],10 to 100
15,C=C1CCCN(c2ccnc(N[C@@H]3CCCN(c4cccc(F)c4)C3)c2)C1=O [I-461],> 200
16,C=CC(=O)N(C)CCCN(C)c1ccnc(N[C@@H]2CCCN(c3cccc(F)c3)C2)c1 [I-462],10 to 100
17,C=CC(=O)N(C)C1CC(N(C)c2ccnc(N[C@@H]3CCCN(c4cccc(F)c4)C3)c2)C1 (stereo partly shown) [I-463],> 200
18,C=CC(=O)N1CCC1C(=O)N1CCN(c2ccnc(N[C@@H]3CCCN(c4cccc(F)c4)C3)c2)CC1 (stereo partly shown) [I-464],> 200
19,C=CC(=O)N1CC2(CCN(c3ccnc(N[C@@H]4CCCN(c5cccc(F)c5)C4)c3)CC2)C1 [I-465],> 200
20,C=CC(=O)NCN1CCN(c2ccnc(N[C@@H]3CCCN(c4cccc(F)c4)C3)c2)CC1 [I-466],10 to 100
21,C=CC(=O)NCc1n[nH]cc1C(=O)N[C@@H](CC(N)=O)c1cccc(Cl)c1 [I-467],> 200
22,C=CC(=O)n1ccc(-c2n[nH]cc2C(=O)N[C@@H](CC(N)=O)c2cccc(Cl)c2)n1 [I-468],> 200
23,C=CC(=O)N1CCCC(c2[nH]ncc2C(=O)N[C@@H](CC(N)=O)c2cccc(Cl)c2)C1 (stereo partly shown) [I-469],> 200
24,C=CC(=O)NC1CCC(c2n[nH]cc2C(=O)N[C@@H](CC(N)=O)c2cccc(Cl)c2)CC1 (stereo partly shown) [I-470],> 200
25,C=CC(=O)N1CCC(c2n[nH]cc2C(=O)N[C@@H](CC(N)=O)c2cccc(Cl)c2)=N1 [I-471],> 200
26,C=CC(=O)n1cc(-c2n[nH]cc2C(=O)N[C@@H](CC(N)=O)c2cccc(Cl)c2)cn1 [I-472],> 200
27,C=CC(=O)NC#Cc1n[nH]cc1C(=O)N[C@@H](CC(N)=O)c1cccc(Cl)c1 [I-473],> 200

row,SMILES,Kd [µM]
1,C=CC(=O)Nc1ccc(-c2n[nH]cc2C(=O)N[C@@H](CC(N)=O)c2cccc(Cl)c2)cc1 [I-474],> 200
2,C=CC(=O)Nc1ccc2[nH]cc(C(=O)N[C@@H](CC(N)=O)c3cccc(Cl)c3)c2c1 [I-475],> 200
3,N#Cc1nccc(CN2CCC[C@@H](Nc3cc(N4CCOCC4)ccn3)C2)n1 [I-476],> 200
4,C=CC(=O)N1CC[C@H](N(C)c2ccnc(N[C@@H]3CCCN(c4cccc(F)c4)C3)c2)C1 [I-477],> 200
5,C=CC(=O)N[C@H]1CCN(c2ccnc(N[C@@H]3CCCN(c4cccc(F)c4)C3)c2)C1 [I-478],> 200
6,C=CC(=O)N1CC[C@H]1C(=O)N1CCN(c2ccnc(N[C@@H]3CCCN(c4cccc(F)c4)C3)c2)CC1 [I-479],> 200
7,C=CC(=O)N(C)[C@H]1C[C@H](N(C)c2ccnc(N[C@@H]3CCCN(c4cccc(F)c4)C3)c2)C1 [I-480],> 200
8,C=CC(=O)N1CCC[C@H](N(C)c2ccnc(N[C@@H]3CCCN(c4cccc(F)c4)C3)c2)C1 [I-481],> 200
9,C=CC(=O)N[C@H]1CC[C@H](c2n[nH]cc2C(=O)N[C@@H](CC(N)=O)c2cccc(Cl)c2)CC1 [I-482],> 200
10,C=CC(=O)N1CCC[C@H](c2n[nH]cc2C(=O)N[C@@H](CC(N)=O)c2cccc(Cl)c2)C1 [I-483],> 200
11,C[C@@H](O)c1cncc(N2CCC[C@@H](Nc3cc(N4CCOCC4)ccn3)C2)c1 [I-484],> 200
12,N[C@@H](c1cncc(N2CCC[C@@H](Nc3cc(N4CCOCC4)ccn3)C2)c1)C1CC1 [I-485],> 200
13,c1cc(N2CCOCC2)cc(NC2CCCN(c3cnn[nH]3)C2)n1 (stereo not shown) [I-486],> 200
14,Cc1sc2c(c1C)C(c1ccc(Cl)cc1)=N[C@@H](CC(=O)NCCOCCOCCOCCOCCOCCn1ncc(C(=O)N[C@@H](CC(N)=O)c3cccc(Cl)c3)c1-c1ccccc1F)c1nnc(C)n1-2 [I-487],> 200
15,Cc1sc2c(c1C)C(c1ccc(Cl)cc1)=N[C@@H](CC(=O)NCCOCCOCCOCCOCCOCCn1ncc(C(=O)N[C@@H](CC(N)=O)c3cccc(Cl)c3)c1-c1ccccc1F)c1nnc(C)n1-2 [I-488],10 to 100
16,Cc1sc2c(c1C)C(c1ccc(Cl)cc1)=N[C@@H](CC(=O)NCCOCCOCCOCCOCCOCCn1cc(C(=O)N[C@@H](CC(N)=O)c3cccc(Cl)c3)c(-c3ccccc3F)n1)c1nnc(C)n1-2 [I-489],100 to 200
17,Cc1sc2c(c1C)C(c1ccc(Cl)cc1)=N[C@@H](CC(=O)NCCOCCOCCOCCOCCn1cc(C(=O)N[C@@H](CC(N)=O)c3cccc(Cl)c3)c(-c3ccccc3F)n1)c1nnc(C)n1-2 [I-490],10 to 100
18,Cc1sc2c(c1C)C(c1ccc(Cl)cc1)=N[C@@H](CC(=O)NCCOCCOCCOCCOCCn1ncc(C(=O)N[C@@H](CC(N)=O)c3cccc(Cl)c3)c1-c1ccccc1F)c1nnc(C)n1-2 [I-491],> 200
19,Cc1sc2c(c1C)C(c1ccc(Cl)cc1)=N[C@@H](CC(=O)NCCOCCOCCOCCOCCOCCOCCn1ncc(C(=O)N[C@@H](CC(N)=O)c3cccc(Cl)c3)c1-c1ccccc1F)c1nnc(C)n1-2 [I-492],> 200
20,Cc1sc2c(c1C)C(c1ccccc1)=N[C@@H](CC(=O)NCCOCCOCCOCCOCCOCCOCCn1cc(C(=O)N[C@@H](CC(N)=O)c3cccc(Cl)c3)c(-c3ccccc3F)n1)c1nnc(C)n1-2 [I-493],> 200
21,Fc1cccc(N2CCC[C@@H](n3cnc4nccc(N5CCOCC5)c43)C2)c1 [I-494],> 200
22,NC(=O)C[C@H](NC(=O)c1cn(Cc2ccccc2)nc1-c1ccccc1F)c1cccc(Cl)c1 [I-495],> 200
23,NC(=O)C[C@H](NC(=O)c1cn[nH]c1C1=CCOCC1)c1cccc(Cl)c1 [I-496],10 to 100
24,CN(C)c1ccnc(N[C@@H]2CCCN(c3cccc(F)c3)C2)c1 [I-498],10 to 100
25,Fc1cccc(N2CCC[C@H](Nc3cc(N4CCOCC4)ccn3)C2)c1 [I-499],10 to 100
